# Laboratory results published in patent US10392371B2, “Compounds useful as modulators of TRPM8” (Senomyx, Inc., priority 2015, dated 2019).
# Assays:
# [1] = target: T1, hTRPM8 (Homo sapiens, UniProt Q7Z2W7); assay: hTRPM8 agonist assay in mammalian cell line stably expressing hTRPM8; assay type: cell-based; details: EC50 of compound compared to that of WS-3, reported as a ratio
# T1 construct: expressed in transfected cells
# Description: A mammalian cell line derivative which stably expresses hTRPM8 was used in biological assays in association with testing the present compounds with cool-tasting or -feeling properties (Servant et al. US 2007/0259354 A1 and references cited therein). Typical compound concentrations tested were 100 μM, 30 μM, 10 μM, 3.3 μM, 1.1 μM, 0.37 μM, 0.12 μM, 0.04 μM, 0.01 μM and more dilutions for very potent compounds. The present compounds have shown strong activity as agonists of hTRPM8. […] For the sake of comparison, the EC50 of Comparative Compound 1, which was previously disclosed in U.S. 2013/0324557 A1 and has the structure
# [2] = Sensory evaluation by quantitative descriptive evaluation technique (ten trained panelists, 15-point linescale); assay type: in vivo, human
# Description: Compounds 102-105 and Comparative Compound 1 were evaluated using a quantitative descriptive evaluation technique. Ten panelists participated in the study. These panelists previously underwent extensive training in the use of standardized vocabulary to describe the appearance, aroma, flavor, and texture of a variety of products. Data collection was conducted over a period of seven days, with panelists evaluating two samples on each day of testing. Two evaluations were obtained from each panelist for each compound yielding a total of 20 evaluations per compound. During the data collection, the panelists were give a list of attributes and instructed to indicate the intensity of each attribute by indicating the intensity on a 15-point linescale. The intensity was evaluated for the following time periods: in-mouth, after expectoration, and 30 seconds, 1, 2, 5, 10, 15, 30, 45, and 60 minutes into the aftertaste period.
# Compounds 102, 103, and 105 were prepared as 5 μM solutions and Compound 104 and Comparative Compound 1 were prepared in 3 μM solutions. 15 mL aliqouts of the test solutions were administered to Panelists in 1 oz. plastic cups coded with a random 3-digit code. The Panelists refrained from brushing their teeth, eating, and drinking one hour before each evaluation. Mean intensities were calculated based on the Panelists responses for each sensory characteristic. The sensory characteristics evaluated were bitter, icy cool in mouth, numbing, cooling breathe in, total burning, alcohol burning, pepperine/capsaicin, tingling, and total trigeminal impact. For each sensory characteristic, the scale of the intensity was designed to cover a range encompassing the universe of products having the indicated sensory characteristic.
# After mean intensities for each attribute were calculated, statistical significance for each mean intensity was calculated using analysis of variance (ANOVA) followed by Duncan's multiple comparison test at an alpha level of 5%. […] In the results provided herein, the Duncan's levels are reported as Levels A, B, and C.
# Panelists were asked to assess the intensity of both capsaicin-like burning and Alcohol-like Burning sensations for Compounds 102 and 103 and Comparative Compound 1. Capsaicin-like burning is the sensation of warming or burning in the mouth, reminiscent of black pepper or hot sauce while alcohol-like burning is the sensation of warming or burning in the mouth, reminiscent of an alcohol burn. The combination of the intensity of these sensations was used to assess the total burning for the tested compounds. The average total burning after expectoration to 60 minutes was lower for both 5 μM Compound 102 and 5 μM Compound 103 as compared to 3 μM Comparative Compound 1.
# The total intensity of trigeminal nerve feeling factors on the soft tissues of the mouth, including numbing, cooling (without breathing in), irritation, warming, burning, and tingling were determined for Compounds 102 and 103 and Comparative Compound 1. The average total trigeminal impact after expectoration to 60 minutes was lower for both 5 μM Compound 102 and 5 μM Compound 103 as compared to 3 μM Comparative Compound 1.
# Icy cool in mouth is the sensation of coolness of the mouth, perceived with the mouth closed, not related to the temperature of the sample. Panelists were asked to assess the sensation of icy cool in mouth for Compound 104 and Compound 105 from the time immediately after expectoration of the sample through 60 minutes after expectoration. The average Icy Cool after expectoration to 60 minutes was higher for both 5 μM Compound 105 and 3 μM Compound 104 as compared to 3 μM Comparative Compound 1.
# Cooling Breath In is the sensation of coolness of the mouth, when inhaling through the mouth, not related to the temperature of the sample. […]
# [3] = Cool Line Scale Test (sensory study, cooling intensity vs 45 μM WS-3); assay type: in vivo, human; details: for Sensory Results (cooling intensity relative to 45 μM WS-3): 5 μM compound vs 45 μM WS-3, Low Sodium Buffer pH ~7.1, 0.1% ethanol, 15 point line scale; for lingering effect: sensory study
# Description: A typical sensory study is described below followed by Table 5 summarizing sensory results of Compounds 101-105.
# All samples made with Low Sodium Buffer (LSB) pH ˜7.1 and contain 0.1% ethanol.
# Compounds are rated on a 15 point line scale where 45 μM WS-3 (N-Ethyl-p-menthane-3-carboxamide) is ranked as a 5 in cool intensity. In most cases, the compounds are tested to determine at what concentration the cooling intensity is equivalent to 45 μM WS-3. In each test, the panelist is presented with a 0 μM control sample, a 45 μM WS-3 control sample and the experimental compound sample and asked to rate the cooling intensity of each sample.
# T1 sequence (Q7Z2W7 whole entry): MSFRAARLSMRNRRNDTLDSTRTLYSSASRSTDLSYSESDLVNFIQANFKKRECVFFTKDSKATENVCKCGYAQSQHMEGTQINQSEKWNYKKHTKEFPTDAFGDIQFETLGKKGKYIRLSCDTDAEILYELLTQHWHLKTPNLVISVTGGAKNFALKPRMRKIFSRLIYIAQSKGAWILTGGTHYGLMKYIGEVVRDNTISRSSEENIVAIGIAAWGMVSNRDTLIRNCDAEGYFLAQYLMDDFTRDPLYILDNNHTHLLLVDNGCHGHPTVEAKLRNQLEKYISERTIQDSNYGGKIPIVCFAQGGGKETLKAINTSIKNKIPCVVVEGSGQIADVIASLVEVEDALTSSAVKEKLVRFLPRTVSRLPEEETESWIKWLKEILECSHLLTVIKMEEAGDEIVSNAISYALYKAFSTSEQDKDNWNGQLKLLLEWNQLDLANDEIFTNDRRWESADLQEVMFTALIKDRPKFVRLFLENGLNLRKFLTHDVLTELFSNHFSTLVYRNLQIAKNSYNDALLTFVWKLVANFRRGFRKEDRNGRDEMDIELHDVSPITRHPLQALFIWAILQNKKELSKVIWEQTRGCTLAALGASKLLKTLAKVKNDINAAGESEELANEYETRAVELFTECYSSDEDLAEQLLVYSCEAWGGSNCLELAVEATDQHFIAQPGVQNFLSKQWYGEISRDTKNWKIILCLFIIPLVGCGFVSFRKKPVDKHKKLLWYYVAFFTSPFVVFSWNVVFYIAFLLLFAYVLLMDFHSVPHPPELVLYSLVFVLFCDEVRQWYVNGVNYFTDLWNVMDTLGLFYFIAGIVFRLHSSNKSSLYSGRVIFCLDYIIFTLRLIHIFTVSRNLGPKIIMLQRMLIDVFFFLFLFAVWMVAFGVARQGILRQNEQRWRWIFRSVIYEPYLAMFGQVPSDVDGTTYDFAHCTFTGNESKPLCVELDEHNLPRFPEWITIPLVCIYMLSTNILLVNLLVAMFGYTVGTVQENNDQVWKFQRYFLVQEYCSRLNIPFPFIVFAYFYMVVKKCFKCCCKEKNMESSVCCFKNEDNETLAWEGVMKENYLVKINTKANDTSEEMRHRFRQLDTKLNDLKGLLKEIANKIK
SMILES,EC50 WS-3 Ratio [1],Average Cooling Breath In (after expectoration to 60 minutes) ([2]; 3 μM solution),Average Icy Cool In Mouth (after expectoration to 60 minutes) ([2]; 3 μM solution),Average Icy Cool In Mouth and Immediately After Expectoration ([2]; 3 μM solution),Average Bitterness at 2 Minutes After Expectoration (Bitterness Rating) ([2]; 3 μM solution),Average Numbing (after expectoration to 60 minutes) ([2]; 5 μM solution),Average Tingling (after expectoration to 60 minutes) ([2]; 5 μM solution),Average Total Burning (after expectoration to 60 minutes) ([2]; 5 μM solution),Average Total Trigeminal Impact (after expectoration to 60 minutes) ([2]; 5 μM solution),Average Bitterness at 2 Minutes After Expectoration (Bitterness Rating) ([2]; 5 μM solution),Sensory Results (cooling intensity relative to 45 μM WS-3) [3],lingering effect [3],also measured
"Cc1ccc(OCC(=O)N(Cc2cccs2)c2ccn[nH]2)cc1 [Comparative Compound 1, reference compound]",28648,2.5,2.1,1.8,1.10,–,–,–,–,–,–,–,Average Numbing (after expectoration to 60 minutes) ([2]; 3 μM solution): 1.5; Average Tingling (after expectoration to 60 minutes) ([2]; 3 μM solution): 0.7; Average Total Burning (after expectoration to 60 minutes) ([2]; 3 μM solution): 1.1; Average Total Trigeminal Impact (after expectoration to 60 minutes) ([2]; 3 μM solution): 2.8
"Cc1cccc(OCC(=O)N(Cc2cccs2)c2cc[nH]n2)c1 [Compound 101, N-(1H-pyrazol-3-yl)-N-(thiophen-2-ylmethyl)-2-(m-tolyloxy)acetamide]",696.3,–,–,–,–,–,–,–,–,–,–,–,–
"O=C(COc1ccc(F)cc1)N(Cc1cccs1)c1cc[nH]n1 [Compound 102, 2-(4-flourophenoxy)-N-(1H-pyrazol-5-yl)-N-(thiophen-2-ylmethyl)acetamide]",495.4,–,–,–,–,1.4,0.6,0.9,2.4,0.86,–,–,–
"COc1ccc(OCC(=O)N(Cc2cccs2)c2cc[nH]n2)cc1 [Compound 103, 2-(4-methoxyphenoxy)-N-(1H-pyrazol-3-yl)-N-(thiophen-2-ylmethyl)acetamide]",1050.9,–,–,–,–,1.3,0.6,0.9,2.3,0.90,equivalent to the cooling,unexpected lingering effect,–
"CCc1ccc(OCC(=O)N(Cc2cccs2)c2cc[nH]n2)cc1 [Compound 104, 2-(4-ethylphenoxy)-N-(1H-pyrazol-3-yl)-N-(thiophen-2-ylmethyl)acetamide]",1189444,2.7,2.3,2.0,0.77,–,–,–,–,–,significantly more cooling,unexpected lingering effect,–
"Cc1ccc(OCC(=O)N(Cc2cccs2)c2cc[nH]n2)cc1C [Compound 105, 2-(3,4-dimethylphenoxy)-N-(1H-pyrazol-3-yl)-N-(thiophen-2-ylmethyl)acetamide]",12169.3,–,–,–,–,–,–,–,–,0.82,–,unexpected lingering effect,Average Cooling Breath In (after expectoration to 60 minutes) ([2]; 5 μM solution): 2.7; Average Icy Cool In Mouth (after expectoration to 60 minutes) ([2]; 5 μM solution): 2.3; Average Icy Cool In Mouth and Immediately After Expectoration ([2]; 5 μM solution): 1.9
